Results reported in patent publication US9012443B2 (Amgen Inc., priority 2011, dated 2015).
Structures can show the parent of a compound that is named as a salt.

Target: Nav 1.7 (Homo sapiens (Human), UniProt Q15858)
Assay: Nav 1.7 in vitro PX assay (PatchXpress whole cell voltage clamp)
Format: cell-based
Conditions: 293 cells, human Nav1.7, partially inactivated state; read-out: Nav1.7 PX IC50 IP
Procedure: Nav 1.7 In Vitro PX Assay
293 cells stably transfected with human Nav1.7 were recorded in whole cell voltage clamp mode with the PatchXpress automated electrophysiology system (Molecular Devices, LLC, Sunnyvale, Calif.). Compound effects were measured on a partially inactivated state of the sodium channel. Cells were clamped to a holding potential yielding 20 to 50% inactivation. To elicit sodium current, channels were activated by pulsing to −10 mV for 20 msec. […] A single concentration of test compound was applied to cells for a duration of 3 minutes. Peak sodium current was measured at the end of the compound addition period to determine percent inhibition. Three to five cells were tested per concentration, and IC50 curves were fitted to percent inhibition as a function of concentration.

Nav 1.7, sequence (Q15858 whole entry): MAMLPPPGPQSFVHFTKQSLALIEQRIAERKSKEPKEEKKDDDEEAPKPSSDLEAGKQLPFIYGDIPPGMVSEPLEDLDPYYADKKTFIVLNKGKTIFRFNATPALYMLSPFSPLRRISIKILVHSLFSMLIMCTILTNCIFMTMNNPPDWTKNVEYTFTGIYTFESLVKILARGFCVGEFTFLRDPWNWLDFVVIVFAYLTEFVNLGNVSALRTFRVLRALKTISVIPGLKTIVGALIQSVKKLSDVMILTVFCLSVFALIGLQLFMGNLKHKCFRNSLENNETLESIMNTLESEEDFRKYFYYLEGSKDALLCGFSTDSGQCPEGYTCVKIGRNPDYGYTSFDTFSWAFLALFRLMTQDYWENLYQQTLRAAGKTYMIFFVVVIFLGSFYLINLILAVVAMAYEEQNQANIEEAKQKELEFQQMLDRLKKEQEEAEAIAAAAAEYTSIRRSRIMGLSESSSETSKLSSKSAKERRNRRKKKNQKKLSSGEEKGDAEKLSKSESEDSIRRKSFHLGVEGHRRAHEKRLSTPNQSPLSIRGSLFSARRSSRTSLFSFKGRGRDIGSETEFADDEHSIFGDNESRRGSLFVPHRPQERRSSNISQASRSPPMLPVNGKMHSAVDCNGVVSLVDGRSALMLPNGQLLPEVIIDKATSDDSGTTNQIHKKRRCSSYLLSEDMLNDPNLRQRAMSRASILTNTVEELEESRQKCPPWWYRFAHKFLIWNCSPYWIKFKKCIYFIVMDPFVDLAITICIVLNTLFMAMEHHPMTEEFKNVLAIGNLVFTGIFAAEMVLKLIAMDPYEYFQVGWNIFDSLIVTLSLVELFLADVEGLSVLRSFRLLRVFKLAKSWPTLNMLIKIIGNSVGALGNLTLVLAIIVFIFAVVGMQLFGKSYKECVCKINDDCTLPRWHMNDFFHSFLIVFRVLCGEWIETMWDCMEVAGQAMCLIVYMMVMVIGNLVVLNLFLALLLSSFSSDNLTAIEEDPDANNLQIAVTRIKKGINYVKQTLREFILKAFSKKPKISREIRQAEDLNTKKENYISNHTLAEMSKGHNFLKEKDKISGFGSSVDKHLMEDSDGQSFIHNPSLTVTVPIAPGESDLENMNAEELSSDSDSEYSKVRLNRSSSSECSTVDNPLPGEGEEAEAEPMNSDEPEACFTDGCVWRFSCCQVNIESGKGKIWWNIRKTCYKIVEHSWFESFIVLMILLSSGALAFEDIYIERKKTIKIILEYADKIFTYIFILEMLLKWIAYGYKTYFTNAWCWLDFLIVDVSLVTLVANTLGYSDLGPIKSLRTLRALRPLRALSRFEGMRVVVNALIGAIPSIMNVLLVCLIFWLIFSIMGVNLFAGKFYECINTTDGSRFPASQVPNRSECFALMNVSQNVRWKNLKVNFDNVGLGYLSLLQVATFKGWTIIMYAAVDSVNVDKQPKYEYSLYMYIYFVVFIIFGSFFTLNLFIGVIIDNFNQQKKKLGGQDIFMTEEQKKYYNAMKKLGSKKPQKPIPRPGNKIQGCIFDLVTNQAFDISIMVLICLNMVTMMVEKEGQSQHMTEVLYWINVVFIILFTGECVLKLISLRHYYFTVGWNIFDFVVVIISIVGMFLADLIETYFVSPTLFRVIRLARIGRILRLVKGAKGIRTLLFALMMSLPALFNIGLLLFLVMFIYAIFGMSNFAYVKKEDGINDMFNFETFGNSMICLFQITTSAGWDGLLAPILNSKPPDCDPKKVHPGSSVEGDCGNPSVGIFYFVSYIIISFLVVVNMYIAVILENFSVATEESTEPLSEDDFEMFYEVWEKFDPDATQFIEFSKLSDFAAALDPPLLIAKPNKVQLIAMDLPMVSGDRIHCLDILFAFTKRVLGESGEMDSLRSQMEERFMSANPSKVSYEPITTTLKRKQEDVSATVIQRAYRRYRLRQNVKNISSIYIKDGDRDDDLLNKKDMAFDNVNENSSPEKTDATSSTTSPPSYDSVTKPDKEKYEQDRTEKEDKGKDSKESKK

Structure (SMILES) | IC50 [µM]
COc1cc(C(F)(F)F)ccc1-c1c[nH]c(=O)c2cc(S(=O)(=O)Nc3nccs3)ccc12 [Example 544, 4-(2-METHOXY-4-(TRIFLUOROMETHYL)PHENYL)-1-OXO-N-(THIAZOL-2-YL)-1,2-DIHYDROISOQUINOLINE-7-SULFONAMIDE] | 0.709
O=S(=O)(Nc1ncns1)c1ccc2c(N3CCC[C@@H]3c3ccncc3)cccc2c1 (single isomer, unassigned) [Example 90] | 0.0393
COc1cc(-c2cccnc2C)ccc1-c1nccc2cc(S(=O)(=O)Nc3ccncn3)ccc12 [Example 476, 1-(2-METHOXY-4-(2-METHYLPYRIDIN-3-YL)PHENYL)-N-(PYRIMIDIN-4-YL)ISOQUINOLINE-6-SULFONAMIDE] | 2.89
COc1cc(-c2cnc(F)c(C)c2)ccc1-c1nccc2cc(S(=O)(=O)Nc3ccncn3)ccc12 [Example 481, 1-(4-(6-FLUORO-5-METHYLPYRIDIN-3-YL)-2-METHOXYPHENYL)-N-(PYRIMIDIN-4-YL)ISOQUINOLINE-6-SULFONAMIDE] | 0.788
COc1ccccc1-c1ncc(O)c2cc(S(=O)(=O)Nc3nccs3)ccc12 [Example 234, 4-HYDROXY-1-(2-METHOXYPHENYL)-N-(THIAZOL-2-YL)ISOQUINOLINE-6-SULFONAMIDE 2,2,2-TRIFLUOROACETATE] | 0.98
COc1cc(C(F)(F)F)ccc1-c1nccc2cc(S(=O)(=O)Nc3cnsn3)ccc12 [Example 388, 1-(2-METHOXY-4-(TRIFLUOROMETHYL)PHENYL)-N-(1,2,5-THIADIAZOL-3-YL)ISOQUINOLINE-6-SULFONAMIDE] | 1.75
Cc1cnc(F)c(-c2nccc3cc(S(=O)(=O)Nc4nccs4)ccc23)c1 [Example 377, 1-(2-FLUORO-5-METHYLPYRIDIN-3-YL)-N-(THIAZOL-2-YL)ISOQUINOLINE-6-SULFONAMIDE] | 24.5
COc1ccc(Cl)cc1-c1n[nH]c(=O)c2cc(S(=O)(=O)Nc3ccncn3)ccc12 [Example 504, 1-(5-CHLORO-2-METHOXYPHENYL)-4-OXO-N-(PYRIMIDIN-4-YL)-3,4-DIHYDROPHTHALAZINE-6-SULFONAMIDE] | 1.59
O=S(=O)(Nc1nccs1)c1ccc2c(-c3ccc(F)cc3C3=CCOC3)nccc2c1 [Example 127, 1-(2-(2,5-DIHYDROFURAN-3-YL)-4-FLUOROPHENYL)-N-(THIAZOL-2-YL)ISOQUINOLINE-6-SULFONAMIDE TRIFLUOROACETATE] | 2.22
COc1cc(F)ccc1-c1ncc(C#N)c2cc(S(=O)(=O)Nc3nccs3)ccc12 [Example 399, 4-CYANO-1-(4-FLUORO-2-METHOXYPHENYL)-N-(THIAZOL-2-YL)ISOQUINOLINE-6-SULFONAMIDE] | 0.682
COc1cc(C(F)(F)F)ccc1-c1nccc2cc(S(=O)(=O)Nc3ccc(F)cn3)ccc12 [Example 427, N-(5-FLUOROPYRIDIN-2-YL)-1-(2-METHOXY-4-(TRIFLUOROMETHYL)PHENYL)ISOQUINOLINE-6-SULFONAMIDE] | 4.42
COc1cc(Cl)ccc1-c1ncnc2cc(S(=O)(=O)Nc3ccncn3)ccc12 [Example 526, 4-(4-CHLORO-2-METHOXYPHENYL)-N-(PYRIMIDIN-4-YL)QUINAZOLINE-7-SULFONAMIDE] | 2.3
O=S(=O)(Nc1nccs1)c1ccc2c(-c3ccc(C(F)(F)F)cc3O)ncnc2c1 [Example 533, 4-(2-HYDROXY-4-(TRIFLUOROMETHYL)PHENYL)-N-(THIAZOL-2-YL)QUINAZOLINE-7-SULFONAMIDE] | 4.09
COc1cc(C(F)(F)F)ccc1-c1ccnc2cc(S(=O)(=O)Nc3nccs3)cc(C)c12 [Example 282, 4-(2-METHOXY-4-(TRIFLUOROMETHYL)PHENYL)-5-METHYL-N-(THIAZOL-2-YL)QUINOLINE-7-SULFONAMIDE] | 3.29
COc1cc(C(F)(F)F)ccc1-c1n[nH]c(=O)c2cc(S(=O)(=O)Nc3ccncn3)ccc12 [Example 506, 1-(2-METHOXY-4-(TRIFLUOROMETHYL)PHENYL)-4-OXO-N-(PYRIMIDIN-4-YL)-3,4-DIHYDROPHTHALAZINE-6-SULFONAMIDE] | 3
N#Cc1cc(C(F)(F)F)ccc1-c1nccc2cc(S(=O)(=O)Nc3nccs3)ccc12 [Example 386, 1-(2-CYANO-4-(TRIFLUOROMETHYL)PHENYL)-N-(THIAZOL-2-YL)ISOQUINOLINE-6-SULFONAMIDE] | 1.39
Cc1cc(C#N)ccc1-c1nccc2cc(S(=O)(=O)Nc3ncns3)ccc12 [Example 359] | 2.38
COc1ncc(Cl)cc1-c1ncnc2cc(S(=O)(=O)Nc3nccs3)ccc12 [Example 541, 4-(5-CHLORO-2-METHOXYPYRIDIN-3-YL)-N-(THIAZOL-2-YL)QUINAZOLINE-7-SULFONAMIDE] | 1.8
Cn1cc(-c2cc(F)ccc2-c2nccc3cc(S(=O)(=O)Nc4nccs4)ccc23)cn1 [Example 129, 1-(4-FLUORO-2-(1-METHYL-1H-PYRAZOL-4-YL)PHENYL)-N-(THIAZOL-2-YL)ISOQUINOLINE-6-SULFONAMIDE TRIFLUOROACETATE] | 8

Structure (SMILES) | IC50 [µM]
N#Cc1ccccc1-c1ncc(F)c2cc(S(=O)(=O)Nc3nccs3)ccc12 [Example 397, 1-(2-CYANOPHENYL)-4-FLUORO-N-(THIAZOL-2-YL)ISOQUINOLINE-6-SULFONAMIDE] | 3.52
COc1cc(C(F)(F)F)ccc1-c1nccc2cc(S(=O)(=O)N=C3NC(=O)CS3)ccc12 [Example 248, (E/Z)-1-(2-METHOXY-4-(TRIFLUOROMETHYL)PHENYL)-N-(4-OXOTHIAZOLIDIN-2-YLIDENE)ISOQUINOLINE-6-SULFONAMIDE] | 0.91
Cc1cnc(OC2CCNCC2)c(-c2nccc3cc(S(=O)(=O)Nc4nccs4)ccc23)c1 [Example 378, 1-(5-METHYL-2-(PIPERIDIN-4-YLOXY)PYRIDIN-3-YL)-N-(THIAZOL-2-YL)ISOQUINOLINE-6-SULFONAMIDE] | 2.42
O=S(=O)(Nc1nccs1)c1ccc2c(-c3cc(F)ccc3OC(F)F)nccc2c1 [Example 413, 1-(2-(DIFLUOROMETHOXY)-5-FLUOROPHENYL)-N-(THIAZOL-2-YL)ISOQUINOLINE-6-SULFONAMIDE] | 0.83
COc1cc(-c2ccnc(F)c2)ccc1-c1nccc2cc(S(=O)(=O)Nc3ccncn3)ccc12 [Example 474, 1-(4-(2-FLUOROPYRIDIN-4-YL)-2-METHOXYPHENYL)-N-(PYRIMIDIN-4-YL)ISOQUINOLINE-6-SULFONAMIDE] | 2.61
COc1cc(C(F)(F)F)ccc1-c1nccc2cc(S(=O)(=O)Nc3nc(C)cs3)ccc12 [Example 424, 1-(2-METHOXY-4-(TRIFLUOROMETHYL)PHENYL)-N-(4-METHYLTHIAZOL-2-YL)ISOQUINOLINE-6-SULFONAMIDE] | 1.66
COc1nc(OCC(C)C)ccc1-c1nccc2cc(S(=O)(=O)Nc3ccncn3)ccc12 [Example 418, 1-(6-ISOBUTOXY-2-METHOXYPYRIDIN-3-YL)-N-(PYRIMIDIN-4-YL)ISOQUINOLINE-6-SULFONAMIDE] | 2.13
COc1cc(C(F)(F)F)ccc1-c1cnnc2cc(S(=O)(=O)Nc3ccncn3)ccc12 [Example 260, 4-(2-METHOXY-4-(TRIFLUOROMETHYL)PHENYL)-N-(PYRIMIDIN-4-YL)CINNOLINE-7-SULFONAMIDE] | 1.27
Cc1cc(C#N)ccc1-c1ccnc2cc(S(=O)(=O)Nc3ncns3)ccc12 [Example 323] | 2.3
O=S(=O)(Nc1nccs1)c1ccc2c(-c3ccc(F)cc3Oc3ccccn3)nccc2c1 [Example 191, 1-(4-FLUORO-2-(PYRIDIN-2-YLOXY)PHENYL)-N-(THIAZOL-2-YL)ISOQUINOLINE-6-SULFONAMIDE] | 13.9
COc1cc(C#N)ccc1-c1ncc(F)c2cc(S(=O)(=O)Nc3ncns3)ccc12 [Example 395, 1-(4-CYANO-2-METHOXYPHENYL)-4-FLUORO-N-(1,2,4-THIADIAZOL-5-YL)ISOQUINOLINE-6-SULFONAMIDE] | 0.761
COc1ncccc1-c1ncc(F)c2cc(S(=O)(=O)Nc3nccs3)ccc12 [Example 396, 4-FLUORO-1-(2-METHOXYPYRIDIN-3-YL)-N-(THIAZOL-2-YL)ISOQUINOLINE-6-SULFONAMIDE] | 1.04
COc1cc(C(F)(F)F)ccc1-c1nccc2cc(S(=O)(=O)Nc3cc(Cl)ncn3)ccc12 [Example 422, N-(6-CHLOROPYRIMIDIN-4-YL)-1-(2-METHOXY-4-(TRIFLUOROMETHYL)PHENYL)ISOQUINOLINE-6-SULFONAMIDE] | 0.835
COc1cc(C(F)(F)F)ccc1-c1nc(=O)[nH]c2cc(S(=O)(=O)Nc3nccs3)ccc12 [Example 543, 4-(2-METHOXY-4-(TRIFLUOROMETHYL)PHENYL)-2-OXO-N-(THIAZOL-2-YL)-1,2-DIHYDROQUINAZOLINE-7-SULFONAMIDE] | 4.56
COc1cc(C#N)ccc1-c1cncc2cc(S(=O)(=O)Nc3ccncn3)ccc12 [Example 286, 4-(4-CYANO-2-METHOXYPHENYL)-N-(PYRIMIDIN-4-YL)ISOQUINOLINE-7-SULFONAMIDE HYDROCHLORIDE] | 4.22
COc1cc(C#N)ccc1-c1ccnc2cc(S(=O)(=O)Nc3ccncn3)ccc12 [Example 280, 4-(4-CYANO-2-METHOXYPHENYL)-N-(PYRIMIDIN-4-YL)QUINOLINE-7-SULFONAMIDE] | 4.45
COc1cc(C(F)(F)F)ccc1-c1ccnc2cc(S(=O)(=O)Nc3nccs3)ncc12 [Example 294, 4-(2-METHOXY-4-(TRIFLUOROMETHYL)PHENYL)-N-(THIAZOL-2-YL)-1,6-NAPHTHYRIDINE-7-SULFONAMIDE] | 2.5
COc1cc(-c2ccc(F)nc2)ccc1-c1nccc2cc(S(=O)(=O)Nc3ccncn3)ccc12 [Example 352, 1-(4-(6-FLUOROPYRIDIN-3-YL)-2-METHOXYPHENYL)-N-(PYRIMIDIN-4-YL)ISOQUINOLINE-6-SULFONAMIDE] | 1.87
COc1cc(-c2cccnc2F)ccc1-c1nccc2cc(S(=O)(=O)Nc3ccncn3)ccc12 [Example 473, 1-(4-(2-FLUOROPYRIDIN-3-YL)-2-METHOXYPHENYL)-N-(PYRIMIDIN-4-YL)ISOQUINOLINE-6-SULFONAMIDE] | 1.36
